Reference: patent US20230059009A1, “INHIBITORS OF LIN28 AND METHODS OF USE THEREOF” (The Regents of the University of California, priority 2019, published 2023)
Blank lines part the entries; values can stand above or below the compound they belong to.

Columns and labels:
LSCs = assay: Colony forming capacity (CFC) of iMLL-AF9 LT-HSC derived LSCs; type: cell-based, mouse; settings: 200 nM Ara-C or 30 μM 1632, 48 h
Text: In addition, Lin28 was independently found to be a key driver in MLL-associated leukemias (56). In order to further characterize the role of Lin28/let-7 in regulating AML, LSC proliferation and therapy resistance in vivo, we used a doxycycline (DOX) inducible, transgenic mouse model for MLL-AF9-driven AML (iMLL-AF9 (57)). In this model, long-term HSC (LT-HSC, Lin^−CD34^−[…] c-Kit^+ CD150^+ CD48^−) derived AML blasts closely mirror an LSC-like phenotype resulting in a particularly aggressive, Cytarabine (Ara-C) resistant AML (57). […] Moreover, relapsed AML cells arising from rLSCs after treatment with Ara-C (100 mg/kg) at d+60 were even further enriched in Lin28b expression (FIG. 2B). Additionally, levels of both, let-7a and let-7b miRNAs, negatively correlated with increased Lin28b in rLSCs (FIG. 2C) (10, 39). Our findings are consistent with papers reporting that increased Lin28 correlates with disease recurrence post chemotherapy in colon and liver cancer stem cells (22, 58).
As Lin28 is overexpressed human AML, LSCs and rLSCs, we sought to determine if genetic Lin28b or pharmacologic Lin28/let-7 inhibition via LN1632 can abrogate proliferation of LSCs and thus overcome their therapy resistance. […]

CAPAN-1 = assay: Cell viability, CTG, CAPAN-1; type: cell-based; settings: Homo sapiens, CAPAN-1 (Pancreatic)
Protocol: (§1) To measure cell viability, cell titer glow (CTG, Promega CellTiter-Glo 2.0 Assay) and MTT assays (SigmaAldrich, Cell Proliferation Kit I) were performed. Briefly, cells were serum starved overnight prior to seeding in 96-well plates. Following 24 h incubation, cells were treated with increasing concentrations of JGJ compounds for 96 hr. At assay read-out, CellTiter-Glo reagent was added and luminescence was measured after 10-minutes incubation at room temperature. For the MTT assay, MTT labeling reagent was added and incubated for 4 h. Subsequently, medium was removed and 50 μL DMSO was added to solubilize the crystals, and absorbance was measured at 570 nm. Cell viability was calculated as (Sample-Background)/(Control-Background). Current standard of care drugs, Enzalutamide, Palbociclib and Cetuximab were used as comparative controls.

MCF7 [1] = assay: Cell viability, CTG, MCF7; type: cell-based; settings: Homo sapiens, MCF7 (Breast)
Protocol: as §1

CYP 2C19 = CYP 2C19 (Homo sapiens, UniProt P33261); assay: CYP inhibition 2C19; type: in vitro ADME; parameters: unit not given here; settings: Conc. 10 uM
[2] = Microsomal stability, CD-1 Mouse; type: in vitro ADME; settings: Conc. 5 uM
22RV1 [3] = assay: Cell viability, MTT assay, 22RV1; type: cell-based; settings: Homo sapiens, 22RV1 (Prostate), 96 hr
Protocol: as §1, with “(Sample-Background)/(Control-Background).” for “(Sample-Background)/(Control-Background). Current standard of care drugs, Enzalutamide, Palbociclib and Cetuximab were used as comparative controls.”

CYP 2B6 = molecular target: T1, CYP 2B6 (Homo sapiens, UniProt P20813); assay: CYP inhibition 2B6; type: in vitro ADME; parameters: unit not given here; settings: Conc. 10 uM
T1 sequence (P20813 1-491): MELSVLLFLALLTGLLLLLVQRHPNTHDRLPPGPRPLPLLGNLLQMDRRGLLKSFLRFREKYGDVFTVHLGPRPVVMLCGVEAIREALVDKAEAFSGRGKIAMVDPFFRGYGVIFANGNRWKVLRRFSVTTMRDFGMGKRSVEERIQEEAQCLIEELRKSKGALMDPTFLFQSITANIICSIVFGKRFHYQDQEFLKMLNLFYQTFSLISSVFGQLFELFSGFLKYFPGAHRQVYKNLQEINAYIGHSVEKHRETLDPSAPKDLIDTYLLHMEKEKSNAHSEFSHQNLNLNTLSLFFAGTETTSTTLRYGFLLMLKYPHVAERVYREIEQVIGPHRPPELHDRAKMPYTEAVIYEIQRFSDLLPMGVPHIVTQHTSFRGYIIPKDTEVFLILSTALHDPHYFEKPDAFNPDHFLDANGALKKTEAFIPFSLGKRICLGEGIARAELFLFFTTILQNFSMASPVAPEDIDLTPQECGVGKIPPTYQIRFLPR

22RV1 [4] = assay: Cell viability, CellTiter-Glo (CTG), 22RV1; type: cell-based; settings: Homo sapiens, 22RV1 (Prostate), 96 hr
Protocol: as §1, with “(Sample-Background)/(Control-Background).” for “(Sample-Background)/(Control-Background). Current standard of care drugs, Enzalutamide, Palbociclib and Cetuximab were used as comparative controls.”

HCT-116 = assay: Cell viability, CTG, HCT-116; type: cell-based; settings: Homo sapiens, HCT-116 (Colon)
Protocol: as §1

SW620 [5] = assay: Cell viability, CTG, SW620; type: cell-based; settings: Homo sapiens, SW-620, SW620 (Colon)
Protocol: as §1

CYP 1A2 = molecular target: T2, CYP 1A2 (Homo sapiens, UniProt P05177); assay: CYP inhibition 1A2; type: in vitro ADME; parameters: unit not given here; settings: Conc. 10 uM
T2 sequence (P05177 1-516): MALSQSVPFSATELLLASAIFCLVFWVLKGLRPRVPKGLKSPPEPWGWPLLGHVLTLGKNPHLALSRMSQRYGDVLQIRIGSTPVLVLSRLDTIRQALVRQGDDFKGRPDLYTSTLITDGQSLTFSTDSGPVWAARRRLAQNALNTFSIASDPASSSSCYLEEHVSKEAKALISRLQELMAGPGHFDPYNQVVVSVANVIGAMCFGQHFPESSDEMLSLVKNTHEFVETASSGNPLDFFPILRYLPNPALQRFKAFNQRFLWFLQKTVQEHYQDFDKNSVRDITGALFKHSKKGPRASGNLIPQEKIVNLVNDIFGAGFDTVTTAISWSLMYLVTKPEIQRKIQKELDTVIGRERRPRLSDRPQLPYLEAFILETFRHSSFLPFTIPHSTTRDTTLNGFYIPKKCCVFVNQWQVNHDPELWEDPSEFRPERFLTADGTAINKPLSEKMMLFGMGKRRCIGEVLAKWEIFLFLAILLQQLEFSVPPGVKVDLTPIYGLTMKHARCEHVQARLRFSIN

ASPC-1 = assay: Cell viability, CTG, ASPC-1; type: cell-based; settings: Homo sapiens, ASPC1, ASPC-1 (Pancreatic)
Protocol: as §1

Caco2 permeability = type: in vitro ADME; settings: human, Caco-2, Conc. 5 uM
CYP 2C8 = molecular target: T3, CYP 2C8 (Homo sapiens, UniProt P10632); assay: CYP inhibition 2C8; type: in vitro ADME; parameters: unit not given here; settings: Conc. 10 uM
T3 sequence (P10632 1-490): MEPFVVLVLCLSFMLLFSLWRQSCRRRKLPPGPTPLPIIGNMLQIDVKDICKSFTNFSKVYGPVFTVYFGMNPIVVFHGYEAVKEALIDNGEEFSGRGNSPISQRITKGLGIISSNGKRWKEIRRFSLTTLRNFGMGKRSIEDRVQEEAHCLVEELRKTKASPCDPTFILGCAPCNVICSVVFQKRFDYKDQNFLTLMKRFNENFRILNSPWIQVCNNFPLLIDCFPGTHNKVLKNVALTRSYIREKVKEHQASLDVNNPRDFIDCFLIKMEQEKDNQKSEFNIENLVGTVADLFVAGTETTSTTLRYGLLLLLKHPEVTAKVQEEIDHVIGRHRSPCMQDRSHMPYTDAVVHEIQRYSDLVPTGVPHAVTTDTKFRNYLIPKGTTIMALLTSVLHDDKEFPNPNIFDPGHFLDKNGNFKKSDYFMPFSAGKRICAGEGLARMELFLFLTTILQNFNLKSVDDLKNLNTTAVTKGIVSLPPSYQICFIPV

MDA-MB231 = assay: Cell viability, CTG, MDA-MB231; type: cell-based; settings: Homo sapiens, MDA-MB-231, MDA-MB231 (Breast)
Protocol: as §1

SW480 [6] = assay: Cell viability, MTT assay, SW480; type: cell-based; settings: Homo sapiens, SW480 (Colon)
Protocol: as §1

SW480 [7] = assay: Cell viability, CTG, SW480; type: cell-based; settings: Homo sapiens, SW480 (Colon)
Protocol: as §1, with “(Sample-Background)/(Control-Background).” for “(Sample-Background)/(Control-Background). Current standard of care drugs, Enzalutamide, Palbociclib and Cetuximab were used as comparative controls.”

SW620 [8] = assay: Cell viability, MTT assay, SW620; type: cell-based; settings: Homo sapiens, SW-620, SW620 (Colon)
Protocol: as §1

MYC-driven cancers = assay: Cell viability and cell counting assays in cancer cells; type: cell-based; settings: TNBC, CRPC, lung and colorectal adenocarcinoma cells
Protocol: To test whether LN1632 and novel analogs thereof affect cancer cell growth, cell viability and cell counting assays in TNBC (FIG. 14B-D), castration resistant prostate cancer cells (CRPC, FIG. 15A-C) and colorectal cancer cells (CRC, FIG. 15A-C) were performed.
as §1

CYP 2C9 = CYP 2C9 (Homo sapiens, UniProt P11712); assay: CYP inhibition 2C9; type: in vitro ADME; parameters: unit not given here; settings: Conc. 10 uM
CYP 2D6 = CYP 2D6 (Homo sapiens, UniProt P10635); assay: CYP inhibition 2D6; type: in vitro ADME; parameters: unit not given here; settings: Conc. 10 uM
[9] = Microsomal stability, Human; type: in vitro ADME; settings: Conc. 5 uM
MCF7 [10] = assay: Cell viability, MTT assay, MCF7; type: cell-based; settings: Homo sapiens, MCF7 (Breast)
Protocol: as §1

BT-549 = assay: Cell viability, MTT assay, BT-549; type: cell-based; settings: Homo sapiens, BT-549 (Breast)
Protocol: as §1

[11] = microsomes, read-out: Microsomal stability T½

CYP 2C19, sequence (P33261 whole entry): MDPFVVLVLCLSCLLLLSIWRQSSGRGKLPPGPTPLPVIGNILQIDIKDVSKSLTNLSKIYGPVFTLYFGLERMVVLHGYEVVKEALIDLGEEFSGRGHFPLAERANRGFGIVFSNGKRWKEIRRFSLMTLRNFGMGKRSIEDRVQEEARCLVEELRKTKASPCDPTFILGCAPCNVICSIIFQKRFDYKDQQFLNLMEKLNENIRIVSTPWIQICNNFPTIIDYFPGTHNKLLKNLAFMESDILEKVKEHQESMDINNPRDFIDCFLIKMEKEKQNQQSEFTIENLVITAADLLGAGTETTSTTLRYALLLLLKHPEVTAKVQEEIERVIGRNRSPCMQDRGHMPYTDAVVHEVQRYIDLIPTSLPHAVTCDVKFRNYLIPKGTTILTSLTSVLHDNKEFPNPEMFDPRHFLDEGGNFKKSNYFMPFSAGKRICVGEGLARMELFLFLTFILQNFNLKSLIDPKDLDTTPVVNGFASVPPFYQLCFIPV
CYP 2C9, sequence (P11712 whole entry): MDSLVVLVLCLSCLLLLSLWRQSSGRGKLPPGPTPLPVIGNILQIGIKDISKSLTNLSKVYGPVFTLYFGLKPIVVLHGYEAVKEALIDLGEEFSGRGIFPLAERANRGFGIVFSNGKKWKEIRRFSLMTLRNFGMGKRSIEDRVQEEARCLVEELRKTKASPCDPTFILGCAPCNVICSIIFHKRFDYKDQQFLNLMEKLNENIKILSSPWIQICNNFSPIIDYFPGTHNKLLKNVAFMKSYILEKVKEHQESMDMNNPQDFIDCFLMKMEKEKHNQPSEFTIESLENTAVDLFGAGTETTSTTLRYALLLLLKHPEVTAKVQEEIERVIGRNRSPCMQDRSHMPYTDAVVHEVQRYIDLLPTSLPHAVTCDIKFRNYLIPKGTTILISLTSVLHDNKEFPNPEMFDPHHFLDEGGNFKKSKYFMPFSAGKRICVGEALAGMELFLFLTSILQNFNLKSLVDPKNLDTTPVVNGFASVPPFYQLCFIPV
CYP 2D6, sequence (P10635 whole entry): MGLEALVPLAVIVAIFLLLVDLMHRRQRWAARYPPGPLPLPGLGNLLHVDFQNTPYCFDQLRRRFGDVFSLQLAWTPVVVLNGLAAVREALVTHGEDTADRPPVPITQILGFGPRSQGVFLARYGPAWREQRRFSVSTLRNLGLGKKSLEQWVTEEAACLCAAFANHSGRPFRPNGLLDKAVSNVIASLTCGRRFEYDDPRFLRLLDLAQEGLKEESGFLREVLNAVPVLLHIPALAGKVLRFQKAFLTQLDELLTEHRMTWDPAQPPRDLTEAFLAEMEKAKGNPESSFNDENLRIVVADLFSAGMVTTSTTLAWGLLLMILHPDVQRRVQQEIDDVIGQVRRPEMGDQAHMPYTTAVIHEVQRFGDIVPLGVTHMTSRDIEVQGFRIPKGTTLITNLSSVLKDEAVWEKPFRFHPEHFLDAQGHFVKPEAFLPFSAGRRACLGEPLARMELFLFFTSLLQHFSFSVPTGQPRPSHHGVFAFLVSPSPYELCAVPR

SMILES: Nc1ccn([C@@H]2O[C@H](CO)[C@@H](O)[C@@H]2O)c(=O)n1 [Ara-C, Cytarabine]
- Colony forming capacity cell numbers (CFCs) of LSCs (LSCs): did not alter colony forming capacity cell numbers (CFCs)

- IC50 (MCF7 [1]): 15 µM
- CYP inhibition 2C19 (CYP 2C19): 98.3
- Microsomal stability % Remaining at T30 [2]: T30 = 78.6%
- microsomal CLint at 5 uM ([2]; microsomes): 14.9 µL/min/mg
- half-life at 5 uM [2, 11]: 1.55 h
- IC50 (22RV1 [3]): 2 µM
- CYP inhibition 2B6 (CYP 2B6): 69.6
- IC50 (22RV1 [4]): 3 µM
- IC50 (HCT-116): 76 µM
- IC50 (SW620 [5]): 15 µM
- CYP inhibition 1A2 (CYP 1A2): 88.9
- IC50 (ASPC-1): 31 µM
- Papp A→B at 5 uM (Caco2 permeability): 4.4 nm/s
- Papp B→A at 5 uM (Caco2 permeability): 16.9 nm/s
- efflux ratio at 5 uM (Caco2 permeability): 3.9
- recovery at 5 uM (Caco2 permeability; read-out: Caco2 Mean A-B % Recovery): 47%
- CYP inhibition 2C8 (CYP 2C8): 90.5
- IC50 (MDA-MB231): 11 µM
- IC50 (SW480 [6]): 26 µM
- IC50 (SW480 [7]): 39 µM
- IC50 (SW620 [8]): 8.5 µM
- CYP inhibition 2C9 (CYP 2C9): 86.6
- CYP inhibition 2D6 (CYP 2D6): 93.9
- Microsomal stability % Remaining at T30 [9]: T30 = 91.2%
- microsomal CLint at 5 uM ([9]; microsomes): 11.6 µL/min/mg
- half-life at 5 uM [9, 11]: > 2 h
SMILES: CC(=O)Nc1cc(F)cc(-c2ccc3[nH]cc(-c4ccccc4)c3n2)c1 [JGJ037, N-(3-Fluoro-5-(3-phenyl-1H-pyrrolo[3,2-b]pyridin-5-yl)phenyl)acetamide]
- IC50 (CAPAN-1): 22 µM
- Proliferation and apoptosis of cancer cells (MYC-driven cancers): reduced proliferation and induced apoptosis preferentially in MYC-driven cancers

- IC50 (MCF7 [1]): 32 µM
- IC50 (MDA-MB231): 13 µM
- IC50 (MCF7 [10]): 5 µM
- IC50 (BT-549): 72 µM
SMILES: CC(=O)c1c(C)c2cnc(Nc3ccc(N4CCNCC4)cn3)nc2n(C2CCCC2)c1=O [Palbociclib, reference compound]
